Measurements published in ChEMBL document CHEMBL5120927, “LEGO-Lipophosphonoxins: A Novel Approach in Designing Membrane Targeting Antimicrobials” (J Med Chem, 2022).

system: Pseudomonas aeruginosa; test: Antibacterial activity against multidrug-resistant Pseudomonas aeruginosa assessed as reduction in microbial growth incubated for 24 hrs by microdilution assay; format: functional; settings: not given

Question: For `CCCCOP(=O)(CCN(CCCN)CCCN)OCCCCCCCCCCCCOP(=O)(CCN(CCCN)CCCN)OCCCC.Cl.Cl.Cl.Cl.Cl.Cl` (centres undefined), which MIC is on record?
Answer: 16 µg/mL

Question: For `Cl.Cl.Cl.Cl.Cl.Cl.NCCCN(CCCN)CCP(=O)(OCCCCCCOP(=O)(CCN(CCCN)CCCN)OCCCC1CCCCC1)OCCCC1CCCCC1` (centres undefined), which MIC is on record?
Answer: 4 µg/mL

Question: Which MIC does the source give for `Cl.Cl.Cl.Cl.Cl.Cl.N=C(N)NCCCN(CCCNC(=N)N)CCP(=O)(OCCCCCCCOP(=O)(CCN(CCCNC(=N)N)CCCNC(=N)N)OCCCC(F)(F)F)OCCCC(F)(F)F` (centres undefined) here?
Answer: > 128 µg/mL

system: Enterococcus faecalis; test: Antibacterial activity against Enterococcus faecalis ATCC 29212 = CCM 4224 assessed as inhibition of bacterial growth incubated for 24 hrs by microdilution assay; format: functional; settings: not given

Question: Which MIC does the source give for `CCCCOP(=O)(CCN(CCCN)CCCN)OCCCCCCCCCCCCOP(=O)(CCN(CCCN)CCCN)OCCCC.Cl.Cl.Cl.Cl.Cl.Cl` (centres undefined) here?
Answer: 32 µg/mL

Question: For `Cl.Cl.Cl.Cl.Cl.Cl.NCCCN(CCCN)CCP(=O)(OCCCCCCOP(=O)(CCN(CCCN)CCCN)OCCCC1CCCCC1)OCCCC1CCCCC1` (centres undefined), which MIC is on record?
Answer: 2 µg/mL

Question: With `Cl.Cl.Cl.Cl.Cl.Cl.N=C(N)NCCCN(CCCNC(=N)N)CCP(=O)(OCCCCCCCOP(=O)(CCN(CCCNC(=N)N)CCCNC(=N)N)OCCCC(F)(F)F)OCCCC(F)(F)F` (centres undefined) as the molecule, how does the MIC read?
Answer: > 128 µg/mL

system: not listed separately; test: Gradient chromatographic hydrophobicity index of the compound at pH 3.7 by HPLC analysis; format: ADME; settings: not given

Question: With `CCCCOP(=O)(CCN(CCCN)CCCN)OCCCCCCCCCCCCOP(=O)(CCN(CCCN)CCCN)OCCCC.Cl.Cl.Cl.Cl.Cl.Cl` (centres undefined) as the molecule, how does the CHI read?
Answer: 31.4

Question: Which CHI does the source give for `Cl.Cl.Cl.Cl.Cl.Cl.NCCCN(CCCN)CCP(=O)(OCCCCCCOP(=O)(CCN(CCCN)CCCN)OCCCC1CCCCC1)OCCCC1CCCCC1` (centres undefined) here?
Answer: 36.4

Question: For `Cl.Cl.Cl.Cl.Cl.Cl.N=C(N)NCCCN(CCCNC(=N)N)CCP(=O)(OCCCCCCCOP(=O)(CCN(CCCNC(=N)N)CCCNC(=N)N)OCCCC(F)(F)F)OCCCC(F)(F)F` (centres undefined), which CHI is on record?
Answer: 25.2

system: Escherichia coli; test: Antibacterial activity against Escherichia coli ATCC 25922 = CCM 3954 assessed as inhibition of bacterial growth incubated for 24 hrs by microdilution assay; format: functional; settings: not given

Question: Which MIC does the source give for `CCCCOP(=O)(CCN(CCCN)CCCN)OCCCCCCCCCCCCOP(=O)(CCN(CCCN)CCCN)OCCCC.Cl.Cl.Cl.Cl.Cl.Cl` (centres undefined) here?
Answer: 128 µg/mL

Question: With `Cl.Cl.Cl.Cl.Cl.Cl.NCCCN(CCCN)CCP(=O)(OCCCCCCOP(=O)(CCN(CCCN)CCCN)OCCCC1CCCCC1)OCCCC1CCCCC1` (centres undefined) as the molecule, how does the MIC read?
Answer: 1 µg/mL

Question: Which MIC does the source give for `Cl.Cl.Cl.Cl.Cl.Cl.N=C(N)NCCCN(CCCNC(=N)N)CCP(=O)(OCCCCCCCOP(=O)(CCN(CCCNC(=N)N)CCCNC(=N)N)OCCCC(F)(F)F)OCCCC(F)(F)F` (centres undefined) here?
Answer: 1 µg/mL

system: Staphylococcus aureus; test: Antibacterial activity against Staphylococcus aureus ATCC 29213 = CCM 4223 assessed as inhibition of bacterial growth incubated for 24 hrs by microdilution assay; format: functional; settings: not given

Question: For `CCCCOP(=O)(CCN(CCCN)CCCN)OCCCCCCCCCCCCOP(=O)(CCN(CCCN)CCCN)OCCCC.Cl.Cl.Cl.Cl.Cl.Cl` (centres undefined), which MIC is on record?
Answer: 4 µg/mL

Question: For `Cl.Cl.Cl.Cl.Cl.Cl.NCCCN(CCCN)CCP(=O)(OCCCCCCOP(=O)(CCN(CCCN)CCCN)OCCCC1CCCCC1)OCCCC1CCCCC1` (centres undefined), which MIC is on record?
Answer: 1 µg/mL

Question: Which MIC does the source give for `Cl.Cl.Cl.Cl.Cl.Cl.N=C(N)NCCCN(CCCNC(=N)N)CCP(=O)(OCCCCCCCOP(=O)(CCN(CCCNC(=N)N)CCCNC(=N)N)OCCCC(F)(F)F)OCCCC(F)(F)F` (centres undefined) here?
Answer: 8 µg/mL

system: Pseudomonas aeruginosa; test: Antibacterial activity against Pseudomonas aeruginosa ATCC 27853 = CCM 3955 assessed as inhibition of bacterial growth incubated for 24 hrs by microdilution assay; format: functional; settings: not given

Question: Which MIC does the source give for `CCCCOP(=O)(CCN(CCCN)CCCN)OCCCCCCCCCCCCOP(=O)(CCN(CCCN)CCCN)OCCCC.Cl.Cl.Cl.Cl.Cl.Cl` (centres undefined) here?
Answer: 32 µg/mL

Question: With `Cl.Cl.Cl.Cl.Cl.Cl.NCCCN(CCCN)CCP(=O)(OCCCCCCOP(=O)(CCN(CCCN)CCCN)OCCCC1CCCCC1)OCCCC1CCCCC1` (centres undefined) as the molecule, how does the MIC read?
Answer: 4 µg/mL

Question: With `Cl.Cl.Cl.Cl.Cl.Cl.N=C(N)NCCCN(CCCNC(=N)N)CCP(=O)(OCCCCCCCOP(=O)(CCN(CCCNC(=N)N)CCCNC(=N)N)OCCCC(F)(F)F)OCCCC(F)(F)F` (centres undefined) as the molecule, how does the MIC read?
Answer: > 128 µg/mL

system: Escherichia coli; test: Antibacterial activity against Escherichia coli ATCC 25922 = CCM 3954 assessed as inhibition of bacterial growth incubated for 24 hrs in presence of BSA by microdilution assay; format: functional; settings: not given

Question: For `CCCCOP(=O)(CCN(CCCN)CCCN)OCCCCCCCCCCCCOP(=O)(CCN(CCCN)CCCN)OCCCC.Cl.Cl.Cl.Cl.Cl.Cl` (centres undefined), which MIC is on record?
Answer: 128 µg/mL

Question: Which MIC does the source give for `Cl.Cl.Cl.Cl.Cl.Cl.NCCCN(CCCN)CCP(=O)(OCCCCCCOP(=O)(CCN(CCCN)CCCN)OCCCC1CCCCC1)OCCCC1CCCCC1` (centres undefined) here?
Answer: 0.5 µg/mL

Question: Which MIC does the source give for `Cl.Cl.Cl.Cl.Cl.Cl.N=C(N)NCCCN(CCCNC(=N)N)CCP(=O)(OCCCCCCCOP(=O)(CCN(CCCNC(=N)N)CCCNC(=N)N)OCCCC(F)(F)F)OCCCC(F)(F)F` (centres undefined) here?
Answer: 128 µg/mL

system: Staphylococcus epidermidis; test: Antibacterial activity against Staphylococcus epidermidis CCM 7221 assessed as inhibition of bacterial growth incubated for 24 hrs by microdilution assay; format: functional; settings: not given

Question: For `CCCCOP(=O)(CCN(CCCN)CCCN)OCCCCCCCCCCCCOP(=O)(CCN(CCCN)CCCN)OCCCC.Cl.Cl.Cl.Cl.Cl.Cl` (centres undefined), which MIC is on record?
Answer: 1 µg/mL

Question: Which MIC does the source give for `Cl.Cl.Cl.Cl.Cl.Cl.NCCCN(CCCN)CCP(=O)(OCCCCCCOP(=O)(CCN(CCCN)CCCN)OCCCC1CCCCC1)OCCCC1CCCCC1` (centres undefined) here?
Answer: 0.5 µg/mL

Question: For `Cl.Cl.Cl.Cl.Cl.Cl.N=C(N)NCCCN(CCCNC(=N)N)CCP(=O)(OCCCCCCCOP(=O)(CCN(CCCNC(=N)N)CCCNC(=N)N)OCCCC(F)(F)F)OCCCC(F)(F)F` (centres undefined), which MIC is on record?
Answer: 8 µg/mL

system: Staphylococcus aureus; test: Antibacterial activity against methicillin resistant Staphylococcus aureus 4591/A assessed as reduction in microbial growth incubated for 24 hrs by microdilution assay; format: functional; settings: not given

Question: For `CCCCOP(=O)(CCN(CCCN)CCCN)OCCCCCCCCCCCCOP(=O)(CCN(CCCN)CCCN)OCCCC.Cl.Cl.Cl.Cl.Cl.Cl` (centres undefined), which MIC is on record?
Answer: 4 µg/mL

Question: Which MIC does the source give for `Cl.Cl.Cl.Cl.Cl.Cl.NCCCN(CCCN)CCP(=O)(OCCCCCCOP(=O)(CCN(CCCN)CCCN)OCCCC1CCCCC1)OCCCC1CCCCC1` (centres undefined) here?
Answer: 1 µg/mL

Question: With `Cl.Cl.Cl.Cl.Cl.Cl.N=C(N)NCCCN(CCCNC(=N)N)CCP(=O)(OCCCCCCCOP(=O)(CCN(CCCNC(=N)N)CCCNC(=N)N)OCCCC(F)(F)F)OCCCC(F)(F)F` (centres undefined) as the molecule, how does the MIC read?
Answer: 8 µg/mL

system: Enterococcus faecium; test: Antibacterial activity against vancomycin resistant Enterococcus faecium 419/ANA assessed as reduction in microbial growth incubated for 24 hrs by microdilution assay; format: functional; settings: not given

Question: Which MIC does the source give for `CCCCOP(=O)(CCN(CCCN)CCCN)OCCCCCCCCCCCCOP(=O)(CCN(CCCN)CCCN)OCCCC.Cl.Cl.Cl.Cl.Cl.Cl` (centres undefined) here?
Answer: > 128 µg/mL

Question: With `Cl.Cl.Cl.Cl.Cl.Cl.NCCCN(CCCN)CCP(=O)(OCCCCCCOP(=O)(CCN(CCCN)CCCN)OCCCC1CCCCC1)OCCCC1CCCCC1` (centres undefined) as the molecule, how does the MIC read?
Answer: 16 µg/mL

Question: For `Cl.Cl.Cl.Cl.Cl.Cl.N=C(N)NCCCN(CCCNC(=N)N)CCP(=O)(OCCCCCCCOP(=O)(CCN(CCCNC(=N)N)CCCNC(=N)N)OCCCC(F)(F)F)OCCCC(F)(F)F` (centres undefined), which MIC is on record?
Answer: > 128 µg/mL

system: Staphylococcus aureus; test: Antibacterial activity against Staphylococcus aureus ATCC 29213 = CCM 4223 assessed as inhibition of bacterial growth incubated for 24 hrs in presence of BSA by microdilution assay; format: functional; settings: not given

Question: For `CCCCOP(=O)(CCN(CCCN)CCCN)OCCCCCCCCCCCCOP(=O)(CCN(CCCN)CCCN)OCCCC.Cl.Cl.Cl.Cl.Cl.Cl` (centres undefined), which MIC is on record?
Answer: 16 µg/mL

Question: For `Cl.Cl.Cl.Cl.Cl.Cl.NCCCN(CCCN)CCP(=O)(OCCCCCCOP(=O)(CCN(CCCN)CCCN)OCCCC1CCCCC1)OCCCC1CCCCC1` (centres undefined), which MIC is on record?
Answer: 1 µg/mL

Question: Which MIC does the source give for `Cl.Cl.Cl.Cl.Cl.Cl.N=C(N)NCCCN(CCCNC(=N)N)CCP(=O)(OCCCCCCCOP(=O)(CCN(CCCNC(=N)N)CCCNC(=N)N)OCCCC(F)(F)F)OCCCC(F)(F)F` (centres undefined) here?
Answer: 16 µg/mL

system: not listed separately; test: Hemolytic activity in human RBC assessed as haemoglobin release measured after 3 hr; format: toxicity, cell-based, Erythrocyte; settings: red blood cells (erythrocytes)

Question: Which HC50 at 3 h does the source give for `CCCCOP(=O)(CCN(CCCN)CCCN)OCCCCCCCCCCCCOP(=O)(CCN(CCCN)CCCN)OCCCC.Cl.Cl.Cl.Cl.Cl.Cl` (centres undefined) here?
Answer: > 500 µg/mL

Question: For `Cl.Cl.Cl.Cl.Cl.Cl.NCCCN(CCCN)CCP(=O)(OCCCCCCOP(=O)(CCN(CCCN)CCCN)OCCCC1CCCCC1)OCCCC1CCCCC1` (centres undefined), which HC50 at 3 h is on record?
Answer: 183 µg/mL

Question: For `Cl.Cl.Cl.Cl.Cl.Cl.N=C(N)NCCCN(CCCNC(=N)N)CCP(=O)(OCCCCCCCOP(=O)(CCN(CCCNC(=N)N)CCCNC(=N)N)OCCCC(F)(F)F)OCCCC(F)(F)F` (centres undefined), which HC50 at 3 h is on record?
Answer: > 200 µg/mL

system: Escherichia coli; test: Antibacterial activity against multidrug-resistant Escherichia coli CE5556 expressing CTX-M-15 assessed as reduction in microbial growth incubated for 24 hrs by microdilution assay; format: functional; settings: not given

Question: Which MIC does the source give for `CCCCOP(=O)(CCN(CCCN)CCCN)OCCCCCCCCCCCCOP(=O)(CCN(CCCN)CCCN)OCCCC.Cl.Cl.Cl.Cl.Cl.Cl` (centres undefined) here?
Answer: > 128 µg/mL

Question: Which MIC does the source give for `Cl.Cl.Cl.Cl.Cl.Cl.NCCCN(CCCN)CCP(=O)(OCCCCCCOP(=O)(CCN(CCCN)CCCN)OCCCC1CCCCC1)OCCCC1CCCCC1` (centres undefined) here?
Answer: 1 µg/mL

Question: Which MIC does the source give for `Cl.Cl.Cl.Cl.Cl.Cl.N=C(N)NCCCN(CCCNC(=N)N)CCP(=O)(OCCCCCCCOP(=O)(CCN(CCCNC(=N)N)CCCNC(=N)N)OCCCC(F)(F)F)OCCCC(F)(F)F` (centres undefined) here?
Answer: 128 µg/mL
